From US20190350955A1, “METHODS AND PHARMACEUTICAL COMPOSITIONS FOR THE TREATMENT OF CARDIOMYOPATHIES” (INSERM (Institut National de la Sante et de la Recherche …, priority 2016, published 2019)

Tests used:
Assay type in all cases: in vivo, mouse
Lmna^H222P/H222P mice [1] = experiment: NAD+ content quantification in heart and liver of treated Lmna H222P/H222P mice; settings: NR complemented diet 400 mg/kg/day, from 17 weeks of age for 9 weeks, vs chow-diet
Protocol: (§1) Mice were bred in an accredited animal facility (accreditation number: C-75-13-08). All experiments on mice were approved by the Comité d'éthique en expérimentation animate Charles Darwin No 5. Mice Lmna^H222P/H222P were backcrossed 8 times to 129S2/SvPasOrlRj strain mice to obtain pure genetic background. Male mice used for the studies were maintained under a 12 h light/12 h dark cycle at constant temperature (23° C.) with free access to food and water. Nicotinamide riboside (NR) complementation: Animals at 17 weeks of age were fed for 9 weeks with either a chow diet (A04: Scientific Animal Food & Engineering) or a chow diet complemented with 0.25% of NR (kindly provided by ChromaDex, Inc. California) corresponding to a dose of 400 mg/kg/day for a mouse weighing 25 g eating 4 g of food per day. […]
(§2) Fresh mouse tissues were homogenized and processed according to previous report (Sander B J, Oelshlegel F J & Brewer G J (1976) Quantitative analysis of pyridine nucleotides in red blood cells: a single-step extraction procedure. Anal. Biochem. 71: 29-36). The concentration of NAD+ in heart tissue was determined using a spectrophotometric assay at 550 nm based on an alcohol dehydrogenase cycling reaction, in which a Methyl Thiazolyl Tetrazolium (MTT) is reduced to Formazan. […]

Lmna^WT/WT mice = experiment: NAD+ content quantification in heart and liver of treated wild type mice; settings: NR diet same dosage (400 mg/kg/day), 9 weeks
Protocol: as §1, §2

Lmna^H222P/H222P mice [2] = experiment: Echocardiography and heart size in treated Lmna H222P/H222P mice
Protocol: Mice were bred in an accredited animal facility (accreditation number: C-75-13-08). All experiments on mice were approved by the Comité d'éthique en expérimentation animate Charles Darwin No 5. Mice Lmna^H222P/H222P were backcrossed 8 times to 129S2/SvPasOrlRj strain mice to obtain pure genetic background. Male mice used for the studies were maintained under a 12 h light/12 h dark cycle at constant temperature (23° C.) with free access to food and water. Nicotinamide riboside (NR) complementation: Animals at 17 weeks of age were fed for 9 weeks with either a chow diet (A04: Scientific Animal Food & Engineering) or a chow diet complemented with 0.25% of NR (kindly provided by ChromaDex, Inc. California) corresponding to a dose of 400 mg/kg/day for a mouse weighing 25 g eating 4 g of food per day. Nicotinamide (NAM) treatment: Animals at 17 weeks of age were injected intraperitoneally (IP) every two days (q.a.d.) for 9 weeks with either physiologic serum or physiologic serum added with NAM at 50 mg/ml corresponding to a dose of 500 mg/kg for a mouse weighing 25 g.
Mouse transthoracic echocardiography was performed using an ACUSON 128XP/10 ultrasound with a 11 Mhz linear probe (Mountain View).MHz transducer applied to the chest wall. Mice were maintained under anesthetized with 0.75% isoflurane anaesthesia (0.75% in O2) and placed on a heating pad (25° C.). Left ventricular (LV) parameters were obtained from M-mode recordings in a modified short axis view. The intra ventricular septum (IVS), LV posterior wall (LVPW), LV diameter (LVD) in diastole and systole, the percentage of fractional shortening (FS) and the heart rate (HR) were measured from the mean of at least three separate cardiac cycles. A “blinded” echocardiographer, unaware of the genotype and the treatment, performed the examinations.

SRF^HKO mice = experiment: Myocardial NAD+ levels in SRF HKO mice (NAD recycling assay)
Source text: Transgenic mice. All experiments with animals conformed to the Directive 2010/63/EU of the European Parliament and were approved by the ethics committee Charles Darvin #5 (agreement 00369.01). SRF^HKO mice bear the tamoxifen-inducible α-MHC-MerCrMer transgene and the Siffloxed allele (Sf/Sf) as described previously (Parlakian et al. (2005). Temporally controlled onset of dilated cardiomyopathy through disruption of the SRF gene in adult heart. Journal 112, 2930-2939; Tritsch et al. (2013). An SRF/miR-1 axis regulates NCX1 and Annexin A5 protein levels in the normal and failing heart. Journal 98, 372-380). Transgenic mice have been bred for more than 20 generations in C57BL/6N background. The mice were housed in standard animal facility (CEF. Hôpital Pitié Salpétrière, agreement A-75-13-15, 75013 Paris), under a 12-h dark/light cycle. Tamoxifen (Sigma T5648) was administrated by i.p. injection at a dose of 0.7 mg diluted in 100 μl peanut oil at day (D) 0, D1 and D2. […]
Tissue frozen powder was resuspended in 75% ethanol, 25% HEPES 10 mM pH 7.1, buffer (20 μl/mg of tissue). […] After adjustment of dilution factors, NADH levels were calculated by substracting the NAD^+ concentration to the non-heated ethanolic extract values: NADH=NADt (non heated)−NAD^+ (heated).
For both types of extracts (buffered ethanol or HClO4) we added 100 μL of reaction buffer (600 mM ethanol, 0.5 mM 3-(4.5-dimethylthiazol-2-yl)-2.5-diphenyltetrazolium bromide (MTT), 2 mM phenazine ethosulfate (PES), 120 mM Bicine (pH 7.8), yeast alcohol dehydrogenase (SIGMA A3263>300 u/mg.) 0.05 mg/ml. Kinetics of the reaction (OD at 550 nm, every 30 seconds for 40 minutes) was followed on a TECAN Infinite F500 microplate reader. NAD was quantified in duplicates for each sample by comparison to a range of standard NAD^+ concentration using linear regression curve equation method between NAD^+ standard concentrations and the slope of the reaction in OD units/sec. […] Cell extracts were quantified for protein concentration determined by Bradford assay.

[3] = NR diet 400 mg/kg/day vs chow-diet, echocardiography after 4 and 9 weeks

NC(=O)c1ccc[n+]([C@@H]2O[C@H](CO)[C@@H](O)[C@H]2O)c1 [NR, nicotinamide riboside]
NAD+ content in liver and heart (Lmna^H222P/H222P mice [1]): increase of their NAD+ content in both the liver and the heart | cellular NAD+ content in liver and heart (Lmna^WT/WT mice): same significant benefit | left-ventricular end diastolic diameter (LVDd) (Lmna^H222P/H222P mice [2]; [3]): significantly decreased | left-ventricular end systolic diameter (LVDs) (Lmna^H222P/H222P mice [2]; [3]): significantly decreased | left-ventricular fractional shortening (FS) (Lmna^H222P/H222P mice [2]; NR diet 400 mg/kg/day vs chow-diet, starting as early as four weeks of treatment): increased | overall heart size (Lmna^H222P/H222P mice [2]; NR diet vs chow-diet): reduced | myocardial NAD (SRF^HKO mice; NR-enriched food (0.22%) from D5 to D50): protected against the drop in NAD | myocardial NAD+ levels (SRF^HKO mice; NR-supplemented diet for 2 weeks from D5 to D20): rescued | myocardial NAD+ levels (SRF^HKO mice; i.p. daily 1 μmole/g body weight from D8 to D15 after SRF inactivation): preserved
